# US5236918A, “6-aryl-3-cyanaminopyridazines, their preparation and use and medicaments containing them” (BYK Gulden Lomberg Chemische Fabrik GmbH, priority 1989, dated 1993)
# Assays:
# [1] = test system: trachea (tracheal ring chain of the guinea-pig); experiment: trachea-relaxing action: relaxation of contractions generated by histamine, carbachol, prostaglandin, ovalbumin and leukotriene; assay type: cell-based; conditions: Cavia porcellus; read-out: trachea-relaxing action, contraction by OA (converted)
# Protocol: (§1) The bronchospasmolytic action of the compounds on the tracheal ring chain of the guinea-pig was tested in vitro as follows: Four parallel tracheal ring chains, each consisting of 6 individual rings, of the guinea-pig (female and male, 430-600 g), in an organ bath [5 ml, Krebs-Henseleit solution with addition of phentolamine (10^-5 mol/l), 37° C., pretension of the organs 2 g, gassing with carbogen] develop a stable, tonic spontaneous contraction after about 20 to 30 minutes. Relaxation can be brought about on these permanently contracted organs under isometric measurement conditions by application of the test substance in a cumulatively semi-logarithmically increasing concentration (e.g. 1×10^-6 +2×10^-6 +7×10^-6 +2×10^-5etc. mol/l), a constant relaxation response being awaited after each individual dose of the test substance before the next higher concentration is applied. A complete dose/effect curve of the test substance is thus obtained over a period of 20 to 30 minutes. The particular relaxation is expressed as the percentage fraction of the maximum relaxation which can be achieved by addition of (-)isoprenaline (10^-6 mol/l). The concentration of the test substance which causes 50% of the maximum relaxation which can be achieved serves as a measure of the bronchodilatory activity, expressed by the negative logarithm of the EC50 mol/l: -log[EC50 ].
# The trachea-relaxing action of compounds 3 and 4 was additionally tested by relaxation of the contractions generated by histamine (His), carbachol (CC), prostaglandin (PGF2alpha), ovalbumin (OA) and leukotriene (LTC4).
# [2] = test system: tracheal ring chain of the guinea-pig; experiment: bronchospasmolytic action on the tracheal ring chain of the guinea-pig in vitro (relaxation of stable tonic spontaneous contraction); assay type: cell-based; conditions: for EC50: Cavia porcellus, EC50 in mol/l, 50% of the maximum relaxation achievable with (-)isoprenaline 10^-6 mol/l, spontaneous contraction, 37° C.; for [EC50]theophylline / [EC50]substance: quotient of EC50 values, theophylline = 1
# Protocol: as §1, with “mol/l).” for “mol/l). The concentration of the test substance which causes 50% of the maximum relaxation which can be achieved serves as a measure of the bronchodilatory activity, expressed by the negative logarithm of the EC50 mol/l: -log[EC50 ].”
# PDE IV [3] = experiment: inhibition of PDE IV from the canine trachea; assay type: biochemical; conditions: for [IC50]theophylline / [IC50]substance: PDE IV canine trachea, quotient of IC50 values, theophylline = 1; for -log[IC50] PDE IV canine trachea: cAMP 0.5 μmol/l, 37° C., 20 minutes
# Text: (§2) The inhibition of phosphodiesterases of classes III (PDE III=high-affinity cAMP-PDE which can be inhibited by cGMP) and IV (PDE IV=high-affinity cAMP-PDE which cannot be inhibited by cGMP, Rolipram-sensitive) is regarded as being particularly conclusive for a bronchospasmolytic and/or antiinflammatory action which may be expected [H. Hidaka et al., Adv. Cycl. Nucl. Res. 13, 145 (1984); Tips 5, 237 (1984); R. Weishaar et al., J. Med. Chem. 28, 537 (1985); S. A. Harrison et al., Molec. Pharmac. 29, 506 (1986); J. Klein-Tebbe et al., Allergologie 12, 12 (1989); C. Schudt et al., Allergologie 12, 12 (1989)].
# (§3) The PDE inhibition of the compounds according to the invention was therefore determined on a PDE III isolated from human platelets and PDE IV isolated from human neutrophilic polymorphonuclear cells (PMNs) and from the canine trachea. The phosphodiesterases III and IV are isolated by chromatography by the method of Polson et al., Biochem. Pharmacol. 31, 3403-3406 (1982).
# (§4) The substances are dissolved in DMSO and diluted further. From a series of solutions diluted up to a hundred-fold, 2.1 μl portions are taken and 212 μl reaction mixture are added. The reaction mixture contains Hepes (100 mmol/l), DTE (5 mmol/l), MgCl2 (5 mmol/l), CaCl2 (10 μmol/l), BSA fraction V 0.5 mg/ml, cAMP 0.5 μmol/l, 2,8-^3 H-cAMP 250,000 cpm/ml (0.3 μCi/ml, s.a. 33.5 μCi/mmol) and SV (snake venom) (25 μg/212 μl test batch).
# (§5) The reaction is started by addition of 10 μl PDE to the reaction mixture and to the substance batch. The mixtures are then incubated at 37° C. for 20 minutes. The reaction is stopped by heating at 95° C. for 45 seconds. After the samples have cooled, the SV solution is added, the 5-AMP formed being cleaved. After incubation for 30 minutes at 37° C., this reaction is stopped by addition of 1 ml anion exchanger suspension. The cAMP which remains is thereby bonded. The adenosine formed remains in the supernatant after centrifugation and can be measured in an aliquot by the radioactivity contained therein.
# [4] = test system: acetylcholine-induced bronchospasm; experiment: protective action against acetylcholine-induced bronchospasm on the conscious guinea-pig; assay type: in vivo; conditions: Cavia porcellus, 0.5 h; verum, oral, 100 μmol/kg, 30 minutes after administration; protected = latency period at least three times; read-out: Number of animals protected/number of animals used (converted)
# Protocol: The bronchospasmolytic action was additionally tested on the model of "Protective action against acetylcholine-induced bronchospasm on the conscious guinea-pig":
# Guinea-pigs (250-350 g) are exposed in a closed Plexiglas cylinder (volume 5 l) to an acetylcholine mist (0.06% in 0.9% sodium chloride solution; ultrasonic mister Heyer Use 77) twice before administration of the substance at an interval of 20 minutes, and 30 minutes after administration of the substance. The time from the start of misting to the onset of clear respiratory exertion (under certain circumstances hypoxic convulsions in the lateral position) is measured and defined as the latency period. A prolonging of the latency period after administration of the substance to at least three times the average latency period before administration of the substance is regarded as a protective action, and the number of protected animals in the group is stated. The test substances are administered orally by means of a stomach tube (dose 100 μmol/kg, volume 1 ml/kg, suspending agent 4% Methocel suspension in 0.9% sodium chloride solution).
# The test substance is administered perorally by means of a stomach tube (standard dose 100 μmol, volume 1 ml 4% Methocel suspension in 0.9% sodium chloride solution/kg). After 30 minutes, the animals are exposed to the acetylcholine mist again and the latency periods are measured. Prolonging of the latency period to at least three times the length is regarded as a protective action.
# PDE III = target: T1, PDE III (Homo sapiens, UniProt Q14432); experiment: inhibition of PDE III isolated from human platelets; assay type: biochemical; conditions: for [IC50]theophylline / [IC50]substance: PDE III, quotient of IC50 values, theophylline = 1; for IC50: human platelets, cAMP 0.5 μmol/l, 37° C., 20 minutes, read-out: -log[IC50] PDE III (converted)
# T1 construct: PDE III isolated from human platelets; from tissue; host or cells: human platelets
# Text: as §2, §3, §4, §5
# [5] = test system: histamine-induced bronchospasm; experiment: histamine-induced bronchospasm on the anaesthetized guinea-pig; assay type: in vivo
# Protocol: The bronchospasmolytic action was furthermore determined on the model of "histamine-induced bronchospasm on the anaesthetized guinea-pig":
# In this model, pharmacodynamic and toxic effects on internal sensitive receptors, on the respiration and on the cardiovascular system of guinea-pigs are recorded simultaneously [U. Kilian, E. Muller, E. Ch.
# A histamine spasm before administration of the substance was compared with several histamine spasms after administration of the substance. The test substances were administered intravenously (i.v.) and/or intrajejunally (i.j.).
# PDE IV [6] = experiment: inhibition of PDE IV from human neutrophilic polymorphonuclear cells (PMNs); assay type: biochemical; conditions: for [IC50]theophylline / [IC50]substance: PDE IV human PMNs, quotient of IC50 values, theophylline = 1; for -log[IC50] PDE IV PNMs: human neutrophilic polymorphonuclear cells, cAMP 0.5 μmol/l, 37° C., 20 minutes
# Text: as §2, §3, §4, §5
# [7] = i.j. (intrajejunal), 20 μmol/kg
# [8] = i.j. (intrajejunal), 60 μmol/kg
# T1 sequence (Q14432 whole entry): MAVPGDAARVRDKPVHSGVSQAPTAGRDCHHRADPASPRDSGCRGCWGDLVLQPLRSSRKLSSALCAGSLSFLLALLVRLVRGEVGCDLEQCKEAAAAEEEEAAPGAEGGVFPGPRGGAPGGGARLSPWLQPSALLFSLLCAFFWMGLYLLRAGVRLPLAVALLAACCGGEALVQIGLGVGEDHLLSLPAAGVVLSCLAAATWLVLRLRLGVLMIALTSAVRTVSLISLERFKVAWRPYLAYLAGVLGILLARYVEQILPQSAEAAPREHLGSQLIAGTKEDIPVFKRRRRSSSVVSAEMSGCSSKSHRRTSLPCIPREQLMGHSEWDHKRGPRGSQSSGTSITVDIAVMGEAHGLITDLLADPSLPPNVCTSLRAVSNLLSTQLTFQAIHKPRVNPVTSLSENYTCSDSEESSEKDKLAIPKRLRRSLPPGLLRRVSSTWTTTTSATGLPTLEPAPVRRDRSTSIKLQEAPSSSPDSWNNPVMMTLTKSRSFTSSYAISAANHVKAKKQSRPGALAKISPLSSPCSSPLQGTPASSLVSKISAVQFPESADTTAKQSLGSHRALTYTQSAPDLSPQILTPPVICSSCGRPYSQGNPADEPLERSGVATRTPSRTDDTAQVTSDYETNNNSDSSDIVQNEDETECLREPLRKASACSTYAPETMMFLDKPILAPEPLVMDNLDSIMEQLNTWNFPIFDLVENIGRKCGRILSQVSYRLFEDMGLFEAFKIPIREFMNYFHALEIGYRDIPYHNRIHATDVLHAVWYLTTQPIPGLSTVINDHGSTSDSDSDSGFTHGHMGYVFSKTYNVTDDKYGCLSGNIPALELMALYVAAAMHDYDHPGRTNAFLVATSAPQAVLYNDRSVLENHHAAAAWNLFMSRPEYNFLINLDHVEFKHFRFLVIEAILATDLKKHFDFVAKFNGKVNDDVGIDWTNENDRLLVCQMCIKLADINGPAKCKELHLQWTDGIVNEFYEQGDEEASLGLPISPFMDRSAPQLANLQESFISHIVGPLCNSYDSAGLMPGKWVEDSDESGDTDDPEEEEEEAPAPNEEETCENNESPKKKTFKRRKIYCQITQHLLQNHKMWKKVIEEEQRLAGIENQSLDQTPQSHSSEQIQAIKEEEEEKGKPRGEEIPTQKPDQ
smiles,measurement,setting,value
"COc1ccc(-c2ccc(NC#N)nn2)cc1OC(C)C [Compound 3, 3-Cyanamino-6-[4-methoxy-3-(1-methylethoxy)phenyl]pyridazine]",EC50,[1],646 nM
same,EC50,[2],417 nM
same,[EC50]theophylline / [EC50]substance,[2],324
same,[IC50]theophylline / [IC50]substance,PDE IV [3],82.2
same,-log[IC50] PDE IV canine trachea,PDE IV [3],5.75
same,responders at 100 µmol/kg,[4],70%
same,[IC50]theophylline / [IC50]substance,PDE III,30.8
same,IC50,PDE III,5250 nM
same,"Average percentage bronchospasmolytic action 0-1 h p. appl., % inhibition of the histamine-induced decrease in Vmaxe",[5]; [7],29%
same,"Average percentage bronchospasmolytic action 0-1 h p. appl., % inhibition of the histamine-induced decrease in Vmaxe",[5]; [8],65%
same,"Average percentage bronchospasmolytic action 0-1 h p. appl., % inhibition of the histamine-induced decrease in Vmaxe","[5]; i.v., 20 μmol/kg",28%
same,"Average percentage bronchospasmolytic action 0-1 h p. appl., % inhibition of the histamine-induced decrease in Vmaxe","[5]; i.v., 60 μmol/kg",65%
same,[IC50]theophylline / [IC50]substance,PDE IV [6],117
same,-log[IC50] PDE IV PNMs,PDE IV [6],5.82
"COc1ccc(-c2ccc(NC#N)nn2)cc1OCC(C)C [Compound 4, 3-Cyanamino-6-[4-methoxy-3-(2-methylpropoxy)phenyl]pyridazine]",EC50,[1],398 nM
same,EC50,[2],112 nM
same,[EC50]theophylline / [EC50]substance,[2],1203
same,[IC50]theophylline / [IC50]substance,PDE IV [3],355
same,-log[IC50] PDE IV canine trachea,PDE IV [3],6.36
same,responders at 100 µmol/kg,[4],85%
same,[IC50]theophylline / [IC50]substance,PDE III,26.9
same,IC50,PDE III,6030 nM
same,"Average percentage bronchospasmolytic action 0-1 h p. appl., % inhibition of the histamine-induced decrease in Vmaxe",[5]; [7],39%
same,"Average percentage bronchospasmolytic action 0-1 h p. appl., % inhibition of the histamine-induced decrease in Vmaxe",[5]; [8],60%
same,"Average percentage bronchospasmolytic action 0-1 h p. appl., % inhibition of the histamine-induced decrease in Vmaxe","[5]; i.v., 20 μmol/kg",37%
same,"Average percentage bronchospasmolytic action 0-1 h p. appl., % inhibition of the histamine-induced decrease in Vmaxe","[5]; i.v., 60 μmol/kg",87%
same,[IC50]theophylline / [IC50]substance,PDE IV [6],357
same,-log[IC50] PDE IV PNMs,PDE IV [6],6.33
"CCOc1cc(-c2ccc(NC#N)nn2)ccc1OC(F)F [Compound 12, 3-Cyanamino-6-(4-difluoromethoxy-3-ethoxyphenyl)pyridazine]",EC50,[2],2450 nM
same,[EC50]theophylline / [EC50]substance,[2],55.0
same,[IC50]theophylline / [IC50]substance,PDE IV [3],97.8
same,-log[IC50] PDE IV canine trachea,PDE IV [3],5.80
same,responders at 100 µmol/kg,[4],70%
same,"Average percentage bronchospasmolytic action 0-1 h p. appl., % inhibition of the histamine-induced decrease in Vmaxe","[5]; i.v., 20 μmol/kg",50%
"CCOc1ccc(-c2ccc(NC#N)nn2)cc1OCC(C)C [Compound 13, 3-Cyanamino-6-[4-ethoxy-3-(2-methylpropoxy)phenyl]pyridazine]",EC50,[2],537 nM
same,[EC50]theophylline / [EC50]substance,[2],251
same,responders at 100 µmol/kg,[4],65%
same,"Average percentage bronchospasmolytic action 0-1 h p. appl., % inhibition of the histamine-induced decrease in Vmaxe","[5]; i.v., 20 μmol/kg",28%
same,[IC50]theophylline / [IC50]substance,PDE IV [6],263
same,-log[IC50] PDE IV PNMs,PDE IV [6],6.18
"Cn1c(=O)c2[nH]cnc2n(C)c1=O [Theophylline, theophylline, reference compound]",EC50,[1],288000 nM
same,-log[IC50] PDE IV canine trachea,PDE IV [3],3.81
same,responders at 100 µmol/kg,[4],30%
same,"Average percentage bronchospasmolytic action 0-1 h p. appl., % inhibition of the histamine-induced decrease in Vmaxe",[5]; [7],11%
same,"Average percentage bronchospasmolytic action 0-1 h p. appl., % inhibition of the histamine-induced decrease in Vmaxe",[5]; [8],37%
same,"Average percentage bronchospasmolytic action 0-1 h p. appl., % inhibition of the histamine-induced decrease in Vmaxe","[5]; i.j. (intrajejunal), 100 μmol/kg",45%
same,"Average percentage bronchospasmolytic action 0-1 h p. appl., % inhibition of the histamine-induced decrease in Vmaxe","[5]; i.v., 20 μmol/kg",13%
same,"Average percentage bronchospasmolytic action 0-1 h p. appl., % inhibition of the histamine-induced decrease in Vmaxe","[5]; i.v., 60 μmol/kg",25%
same,"Average percentage bronchospasmolytic action 0-1 h p. appl., % inhibition of the histamine-induced decrease in Vmaxe","[5]; i.v., 100 μmol/kg",34%
same,-log[IC50] PDE IV PNMs,PDE IV [6],3.76
